Laboratory results reported in the Deep4Chem optical property database.
Each block holds one molecule with its values, some of them ahead of it.

Experiment: photoluminescence quantum yield (fraction); solvent given as SMILES
[1] = in O=P(c1ccccc1)(c1ccccc1)c1ccccc1Oc1ccccc1P(=O)(c1ccccc1)c1ccccc1

SMILES: Cc1cc(=O)oc2c3c4c(cc12)CCCN4CCC3
photoluminescence quantum yield (in CCC#N): 0.9
photoluminescence quantum yield (in CCCCl): 0.8
photoluminescence quantum yield (in CCO): 0.8
photoluminescence quantum yield (in OC(C(F)(F)F)C(F)(F)F): 0.86
photoluminescence quantum yield (in OCC(F)(F)F): 0.84

SMILES: N#Cc1ccc(C#Cc2ncc(-c3ccccc3)o2)cc1
photoluminescence quantum yield (in ClCCl): 0.28

SMILES: COc1ccc(-c2csc(-c3ccncc3)n2)cc1
photoluminescence quantum yield (in CC#N): 0.002
photoluminescence quantum yield (in CCO): 0.22
photoluminescence quantum yield (in CN(C)C=O): 0.158
photoluminescence quantum yield (in CS(C)=O): 0.163
photoluminescence quantum yield (in Cc1ccccc1): 0.037
photoluminescence quantum yield (in ClCCl): 0.089

SMILES: c1ccc2cc3cnccc3cc2c1
photoluminescence quantum yield (in CCO): 0.6

SMILES: CCCCn1c2ccc(C#Cc3cccs3)cc2c2c1c1c3ccc(C#Cc4cccs4)cc3n(CCCC)c1c1c3ccc(C#Cc4cccs4)cc3n(CCCC)c21
photoluminescence quantum yield (in C1CCOC1): 0.39

SMILES: CCOC(=O)c1sc(SC)c2c(=O)n(C)nnc12
photoluminescence quantum yield (in C1CCOC1): 0.016
photoluminescence quantum yield (in CC#N): 0.029
photoluminescence quantum yield (in CCO): 0.054
photoluminescence quantum yield (in CN(C)C=O): 0.013
photoluminescence quantum yield (in CO): 0.052
photoluminescence quantum yield (in CS(C)=O): 0.0077

SMILES: CCN(CC)c1ccc(C(=C(c2ccccc2)c2ccc(B(c3c(C)cc(C)cc3C)c3c(C)cc(C)cc3C)cc2)c2ccc(N(CC)CC)cc2)cc1
photoluminescence quantum yield (in C1CCOC1): 0.19

SMILES: c1ccc(-c2cc3c(-c4ccccc4)c4cccc5c(-c6ccccc6)cc6c(-c7ccccc7)c7cccc2c7c3c6c54)cc1
photoluminescence quantum yield (in ClCCl): 0.26

SMILES: COc1cc(/C=C/c2nc3ccccc3s2)c(OC)cc1/C=C/c1ccncc1
photoluminescence quantum yield (in C1CCOC1): 0.75
photoluminescence quantum yield (in CC#N): 0.5
photoluminescence quantum yield (in CN(C)C=O): 0.67
photoluminescence quantum yield (in Cc1ccccc1): 0.86

SMILES: C(S/C=C/c1ccc(-c2ccc(/C=C/SC=C3CCCCCC3)cc2)cc1)=C1CCCCCC1
photoluminescence quantum yield (in ClCCl): 0.176

SMILES: Nc1cc(N)cc(-c2nc3ccccc3s2)c1
photoluminescence quantum yield (in C1CCCCC1): 0.102
photoluminescence quantum yield (in C1COCCO1): 0.06
photoluminescence quantum yield (in CC#N): 0.05
photoluminescence quantum yield (in CC(C)O): 0.055
photoluminescence quantum yield (in CCOC(C)=O): 0.053
photoluminescence quantum yield (in CCOCC): 0.061
photoluminescence quantum yield (in CO): 0.015
photoluminescence quantum yield (in O): 0.0091

SMILES: CCCCCCCCCCCCN1C(=O)c2c(c3ccc4cc(-c5ccc(-c6ccccc6)cc5)c(OC)cc4c3c3c2ccc2cc(-c4ccc(-c5ccccc5)cc4)c(OC)cc23)C1=O
photoluminescence quantum yield (in ClCCl): 0.17

SMILES: c1ccc(-c2cc(-c3ccccc3)cc(-c3ccc4c(c3)C3(c5cc(-c6cc(-c7ccccc7)cc(-c7ccccc7)c6)ccc5-4)c4ccccc4-c4c3c3c5ccccc5ccc3c3ccccc43)c2)cc1
photoluminescence quantum yield (in Cc1ccccc1): 0.59

SMILES: O=c1c2cc(-n3c4ccccc4c4ccccc43)ccc2sc2ccc(-n3c4ccccc4c4ccccc43)cc12
photoluminescence quantum yield [1]: 0.412

SMILES: c1ccc(N2c3ccc4ccccc4c3-c3c4ccccc4cn[n+]3[B-]2(c2ccccc2)c2ccccc2)cc1
photoluminescence quantum yield (in Cc1ccccc1): 0.05

SMILES: CCCCN(CCCC)c1ccc(C#Cc2cc(C#Cc3ccc(C(F)(F)F)cc3)c(C#Cc3ccc(C(F)(F)F)cc3)cc2C#Cc2ccc(N(CCCC)CCCC)cc2)cc1
photoluminescence quantum yield (in ClCCl): 0.44

SMILES: CCCCCn1c2cc(/C=C/c3ccc(N(c4ccccc4)c4ccccc4)cc3)ccc2c2ccc(/C=C/c3ccc(N(c4ccccc4)c4ccccc4)cc3)cc21
photoluminescence quantum yield (in Cc1ccccc1): 0.81

SMILES: CCCCCCCCc1ccc(-n2c3c(c4c2c2c(n4-c4ccc(CCCCCCCC)cc4)-c4ccccc4NB2c2ccccc2)B(c2ccccc2)Nc2ccccc2-3)cc1
photoluminescence quantum yield (in Cc1ccccc1): 0.7

SMILES: [O-][n+]1c(/C=C/c2ccc(/C=C/c3ccccc3)cc2)nc(N2CCOCC2)c2c1CCCC2
photoluminescence quantum yield (in ClCCl): 0.04

SMILES: O=P1(c2ccccc2)C(c2ccc(C3=Cc4ccccc4P3(=O)c3ccccc3)cc2)=Cc2ccccc21 (centres undefined)
photoluminescence quantum yield (in C1CCOC1): 0.29

SMILES: Cc1ccc2c(c1)c1cc(C)ccc1n2-c1c(-n2c3ccccc3c3ccccc32)cc(-c2nc(-c3ccccc3)nc(-c3ccccc3)n2)cc1-n1c2ccccc2c2ccccc21
photoluminescence quantum yield [1]: 0.98

SMILES: Cc1cc(C#Cc2ccccc2)c2ccc3c(C#Cc4ccccc4)cc(C#Cc4ccccc4)c4ccc1c2c43
photoluminescence quantum yield (in CS(C)=O): 0.72
photoluminescence quantum yield (in ClC(Cl)(Cl)Cl): 0.56

SMILES: C(#Cc1cnc(C#Cc2ccccc2)nc1)c1ccccc1
photoluminescence quantum yield (in C1CCCCC1): 0.0009

SMILES: COc1ccc(C2=C(c3ccccc3)C(c3ccccc3)=[N+]3C2=Nc2c(-c4ccc(OC)cc4)c(-c4ccccc4)c(-c4ccccc4)n2[B-]3(F)F)cc1
photoluminescence quantum yield (in Cc1ccccc1): 0.04

SMILES: CCCCCCc1ccc(-n2c3c4cccc(OC)c4nc(-c4ccc(C)cc4)c3c3c2c2c(-c4ccc(C)cc4)nc4c(OC)cccc4c2n3-c2ccc(CCCCCC)cc2)cc1
photoluminescence quantum yield (in ClC(Cl)Cl): 0.02

SMILES: c1ccc(B2Nc3cc4c(cc3-c3occc32)NB(c2ccccc2)c2ccoc2-4)cc1
photoluminescence quantum yield (in ClCCl): 0.26

SMILES: O=C1c2cccc3c(-n4c5ccccc5c5ccccc54)ccc(c23)C(=O)N1c1ccccc1
photoluminescence quantum yield (in C1CCOC1): 0.032
photoluminescence quantum yield (in CCCCCC): 0.887
photoluminescence quantum yield (in ClC(Cl)Cl): 0.198
photoluminescence quantum yield (in ClCCl): 0.032

SMILES: C(#Cc1nc2ccccc2s1)c1ccc(N(c2ccc(C#Cc3nc4ccccc4s3)cc2)c2ccc(C#Cc3nc4ccccc4s3)cc2)cc1
photoluminescence quantum yield (in Cc1ccccc1): 0.8

SMILES: CC1(C)c2ccccc2N(c2ccc(-c3nc4cc(C#N)c(C#N)cc4nc3-c3ccc(N4c5ccccc5C(C)(C)c5ccccc54)cc3)cc2)c2ccccc21
photoluminescence quantum yield (in Cc1ccccc1): 0.91

SMILES: F[B-]1(F)n2cccc2C(c2ccc(-c3c4ccccc4c(-c4ccccc4)c4ccccc34)cc2)=C2C=CC=[N+]21
photoluminescence quantum yield (in CC#N): 0.001
photoluminescence quantum yield (in CCCCCC): 0.014
photoluminescence quantum yield (in CCO): 0.003
photoluminescence quantum yield (in CN(C)C=O): 0.002
photoluminescence quantum yield (in Cc1ccccc1): 0.036
photoluminescence quantum yield (in ClCCl): 0.002

SMILES: N#Cc1c(-n2c3ccc(Br)cc3c3cc(Br)ccc32)c(C#N)c(-n2c3ccc(Br)cc3c3cc(Br)ccc32)c(-n2c3ccc(Br)cc3c3cc(Br)ccc32)c1-n1c2ccc(Br)cc2c2cc(Br)ccc21
photoluminescence quantum yield (in Cc1ccccc1): 0.67

Other lines, results leading:

photoluminescence quantum yield (in CO): 0.41
SMILES: Cc1cc(C)c(B(c2cc(-c3ccc(C(F)(F)F)cc3)sc2-c2sc(-c3ccc(C(F)(F)F)cc3)cc2P(=O)(c2ccccc2)c2ccccc2)c2c(C)cc(C)cc2C)c(C)c1

photoluminescence quantum yield (in CS(C)=O): 0.07
SMILES: CN1/C(=C/C=C/C2=[N+](C)c3ccccc3C2(C)C)Sc2ccccc21

photoluminescence quantum yield (in C1CCCCC1): 0.89
photoluminescence quantum yield (in CCOC(C)=O): 0.16
SMILES: CC1=[N+]2C(=C(Oc3ccccc3)c3ccc(C)n3[B-]2(F)F)C=C1c1cc2n(c1)[B-](F)(F)[N+]1=CC=CC1=C2c1c(C)cc(C)cc1C

photoluminescence quantum yield (in CCO): 0.637
SMILES: COc1ccc(C(=O)OCc2c(C)c(=O)n3c(=O)c(C)c(C)n23)cc1

photoluminescence quantum yield (in CCCCCC): 0.35
photoluminescence quantum yield (in CO): 0.31
photoluminescence quantum yield (in ClCCl): 0.41
SMILES: CCCCc1ccc2ccc3cccc4ccc1c2c34

photoluminescence quantum yield (in C1CCCCC1): 0.59
photoluminescence quantum yield (in CC1CCCCC1): 0.56
photoluminescence quantum yield (in CC#N): 0.43
photoluminescence quantum yield (in CCC(C)CC): 0.57
photoluminescence quantum yield (in CCCCCC): 0.57
photoluminescence quantum yield (in CCOC(C)=O): 0.47
SMILES: CCN(CC)c1ccc2cc(-c3nc4ccccc4s3)c(=O)oc2c1

photoluminescence quantum yield (in CO): 0.03
photoluminescence quantum yield (in CS(C)=O): 0.03
photoluminescence quantum yield (in O): 0.06
SMILES: CCCN1/C(=C/C=C(/C=C/c2sc3ccccc3[n+]2CCC)c2ccc([N+](=O)[O-])cc2)C(C)(C)c2ccccc21

photoluminescence quantum yield (in CCO): 0.1
SMILES: Cc1nc2cc3c4c(cccc4c2o1)C(=O)OC3=O

photoluminescence quantum yield (in C1CCOC1): 0.06
SMILES: CCCCCCc1cc2c(s1)-c1sc(CCCCCC)cc1P(c1ccccc1)(c1ccccc1)=[O+][B-]2(c1c(C)cc(C)cc1C)c1c(C)cc(C)cc1C

photoluminescence quantum yield (in ClCCl): 0.42
SMILES: Clc1ccc(-c2cccc3ncc(-c4ccccc4)n23)cc1

photoluminescence quantum yield (in ClCCl): 0.64
SMILES: CC1=C2C=CC(c3ccccc3)=[N+]2[B-](F)(F)n2c1ccc2-c1ccccc1

photoluminescence quantum yield (in ClCCl): 0.72
SMILES: CN(C)c1ccc(/C=C/c2cc(/C=C/c3ccc(N(C)C)cc3)nc(/C=C/c3ccccc3)n2)cc1

photoluminescence quantum yield (in C1COCCO1): 0.188
SMILES: COc1ccc(C2=C/C(=C\c3ccc(C#N)cc3)C(=O)N2)cc1OC

photoluminescence quantum yield (in C1CCOC1): 0.85
SMILES: CN(C)c1ccc(-c2ccc(-c3cc(N4CCCCC4)c(C#N)c4c3-c3ccccc3CC4)s2)cc1

photoluminescence quantum yield (in CC#N): 0.11
photoluminescence quantum yield (in CCCCCC): 0.15
photoluminescence quantum yield (in CCOC(C)=O): 0.14
photoluminescence quantum yield (in CO): 0.14
photoluminescence quantum yield (in ClCCl): 0.19
SMILES: COC1=[N+]2C(=C(c3ccccc3)c3ccc(OC)n3[B-]2(F)F)C=C1SC#N

photoluminescence quantum yield (in ClC(Cl)Cl): 0.57
SMILES: CC1=CC(C)=[N+]2C1=C(c1ccc(I)cc1)c1c(C)cc(C)n1[B-]2(F)F

photoluminescence quantum yield (in ClCCl): 0.07
SMILES: CN(C)c1ccc(/C=C/c2ncnc3ccccc23)cc1

photoluminescence quantum yield (in CS(C)=O): 0.6
SMILES: COc1cc(-c2nc3sc4ccccc4c3s2)cc(OC)c1OC

photoluminescence quantum yield (in C1CCCCC1): 0.23
photoluminescence quantum yield (in CC#N): 0.26
photoluminescence quantum yield (in CO): 0.25
photoluminescence quantum yield (in ClCCl): 0.31
SMILES: COc1c2ccccc2c(OC)c2c1c1c(C)ccc(OC)c1n2C

photoluminescence quantum yield (in CC#N): 0.044
SMILES: c1ccc(-c2pc3ccccc3s2)cc1 (centres undefined)

photoluminescence quantum yield (in CS(C)=O): 0.291
SMILES: CCCCN1\C(=C/C=C/C=C/C2=[N+](CCCC)c3ccc4ccccc4c3C2(C)C)C(C)(C)c2c1ccc1ccccc21

photoluminescence quantum yield (in CCO): 0.01
SMILES: C#Cc1ccc2cc3c(C)cc(=O)oc3cc2c1

photoluminescence quantum yield (in C1COCCO1): 0.295
SMILES: COC(=O)c1ccc(/C=C2\N=C(c3ccc(OC)c(OC)c3)NC2=O)cc1

photoluminescence quantum yield (in CC#N): 0.14
SMILES: Cc1cccc2c1nc1c(=O)n(C)c(=O)nc-1n2C

photoluminescence quantum yield (in CCO): 0.48
photoluminescence quantum yield (in O): 0.16
SMILES: CC/[NH+]=c1\cc2oc3cc(NCCC(=O)NC(CCC(=O)OC)C(=O)OC)c4ccccc4c3nc-2cc1C (centres undefined)

photoluminescence quantum yield (in C1CCOC1): 0.025
photoluminescence quantum yield (in ClC(Cl)Cl): 0.03
photoluminescence quantum yield (in ClCCl): 0.015
SMILES: COc1ccc2cc(C#Cc3ccc([N+](=O)[O-])cc3)ccc2c1

photoluminescence quantum yield (in C1CCCCC1): 0.14
photoluminescence quantum yield (in CO): 0.02
SMILES: Clc1ccc(/C=C/c2nc3ccccc3o2)cc1

photoluminescence quantum yield (in ClCCl): 0.86
SMILES: O=C1c2cc3ccccc3cc2C2=Nc3cccc[n+]3[B-](F)(F)N12

photoluminescence quantum yield (in ClCCl): 0.77
SMILES: COc1ccccc1C1=[N+]2C(=C(c3ccccc3)c3c4c(c(-c5ccccc5OC)n3[B-]2(F)F)C2CCC4CC2)C2=C1C1CCC2CC1
